Measured values reported in patent US10590422B2, “Anticancer therapeutic intervention” (PHYZAT BIOPHARMACEUTICALS, LDA., priority 2017, dated 2020).
d = 2'-deoxy (DNA); r = 2'-OH (RNA)

Tests used:
[1] = tested on: human colon cancer HTC-116 cells; experiment: Cell proliferation assay (calcein-AM) in human colon cancer HTC-116 cells; assay type: cell-based; settings: for cell proliferation / proliferation: treatment 6 h; for cell proliferation: 72 h exposure, FIG. 14; for proliferation: at 72 h, 0.17% Lipofectamine 2000 or 0.1% Injectin, FIGS. 19B and 20B
Protocol: (§1) SK-HEP-1, T24, HT-1080 and HCT-116 cell lines were maintained in a humidified atmosphere of 5% CO2 at 37° C. SK-HEP-1 cells were grown in RPMI-1640 (Sigma, St. Louis, Mo.) supplemented with 20% fetal bovine serum (FBS) (Gibco, UK), 100 U/mL penicillin G, 0.25 μg/mL amphotericin B, 100 μg/mL streptomycin (Gibco, UK), 25 mM sodium bicarbonate (Merck, Germany) and 25 mM N-2-hydroxyethylpiperazine-N′-2-ethanosulfonic acid (HEPES) (Sigma, St. Louis, Mo.). T24 and HT-1080 cells were grown, respectively, in Dulbecco's Modified Eagle's Medium (DMEM)—high glucose (Sigma, St. Louis, Mo.) and DMEM—low glucose (Sigma, St. Louis, Mo.), supplemented with 10% FBS (Gibco, UK), 100 U/mL penicillin G, 0.25 μg/mL amphotericin B, 100 μg/mL streptomycin (Gibco, UK), 25 mM sodium bicarbonate (Merck, Germany) and 25 mM HEPES (Sigma, St. Louis, Mo.). HCT-116 cells were grown in McCoy's 5A (Sigma, St. Louis, Mo.) supplemented with 10% FBS (Gibco, UK), 100 U/mL penicillin G, 0.25 μg/mL amphotericin B, 100 μg/mL streptomycin (Gibco, UK), 25 mM sodium bicarbonate (Merck, Germany) and 25 mM HEPES (Sigma, St. Louis, Mo.). For all cell lines the medium was changed every 2 days, and cells reached confluence 3-4 days after initial seeding. For subculturing, cells were dissociated with 0.25% trypsin-ethylenediaminetetraacetic acid (EDTA) (Sigma, St. Louis, Mo.), split 1:15 or 1:20 and subcultured in a 21-cm^2 growth area (Sarstedt, Germany).
Cell proliferation was measured using calcein-AM (Thermo Fisher Scientific, USA). The membrane permeant calcein-AM, a nonfluorescent dye, is taken up and converted by intracellular esterases to membrane impermeant calcein, which emits green fluorescence. Cells were plated in 96-well plates with black walls clear bottom (BD Biosciences, USA) and incubated 24 h under normal growth conditions. Cells were incubated with test items at 37° C., 5% C02. After the incubation period, serum and antibiotic was restored and cells were further incubated at normal conditions during 72 h. After treatment with test substances or vehicle, cells were washed twice with Hanks' medium and loaded with 2 μM calcein-AM in Hanks' medium, at 37° C. for 30 min. Fluorescence was measured at 485 nm excitation and 530 nm emission wavelengths in a microplate spectrofluorometer (Gemini EM, Molecular Devices). Nine consecutive fluorescence measurements are performed per well, to allow fluorescence readings in the whole area of the well, which was then considered for the calculation of mean fluorescence per well. To determine minimum staining for calcein (calceinmin), eight wells were treated with ethanol 30 min before calcein-AM addition. The percent cell number is calculated as [(calceinsample)/(calceincontrol)]×100.

LAT1 = LAT1 activity: [^14C]-L-leucine uptake in SK-HEP-1 cells after LAT1 gene silencing; assay type: cell-based, human; settings: for inhibiting sodium-independent [^14C]-L-leucine transport: LAT1 siRNA, general statement, conditions not given; for [^14C]-L-leucine (0.25 μM) uptake at initial rate of uptake (1 min): liver carcinoma SK-HEP-1 cells, 10 nM siRNA, treatment 6 h, at 24 h and 48 h, 0.4% Lipofectamine 2000, FIGS. 5A and 5C
Protocol: Cells were plated in 24-well plates (Sarstedt, Germany) and grown until confluence was reached. On the day of the experiment, cell culture medium was aspirated and cells were preincubated for 15 min in Hanks' medium (NaCl 140 mM, KCl 5 mM, MgSO4.7H2O 0.8 mM, K2HPO4 0.33 mM, KH2PO4 0.44 mM, MgCl2.6H2O 1 mM, CaCl2) 0.025 mM, Tris-HCl 9.75 mM, pH 7.4). Uptake was initiated by addition of Hanks' medium with 0.25 μM [^14C]-L-leucine in the absence and in the presence of 3 mM unlabeled L-leucine. During preincubation and incubation cells were continuously shaken and maintained at 37° C. Uptake was terminated after 1 min by rapid removal of uptake solution by means of a vacuum pump connected to a Pasteur pipette, followed by a rapid wash with Hanks' medium. Subsequently, cells were solubilized in 0.1% vol/vol Triton X-100 (dissolved in 5 mM Tris-HCl, pH 7.4), and radioactivity was measured by liquid scintillation counting.
(§2) Cells were plated in 24-well (Sarstedt, Germany) or 6-well plates (Sarstedt, Germany) or 96-well plates with black walls clear bottom (BD Biosciences, USA) and incubated 24 h under normal growth conditions. siRNAs against LAT1 and transfection agent were diluted at desired concentrations and mixed according to transfection agent manufacturer's instructions. The mixture was incubated 20 min at RT for siRNA-complex formation, after which it was added to the cells and incubated at 37° C., 5% CO2. After the incubation period, serum and antibiotic was restored and cells were further incubated at normal conditions for the desired time points until evaluation of LAT1 activity or LAT1 expression (immunoblotting and RT-qPCR).

LAT1 mRNA [2] = experiment: LAT1 gene expression (RT-qPCR, relative to GAPDH) after LAT1 gene silencing in SK-HEP-1 cells; assay type: cell-based, human; settings: at 24 h; for LAT1 mRNA relative abundance: liver carcinoma SK-HEP-1 cells, 10 nM siRNA, treatment 6 h, Lipofectamine 2000, FIG. 4A
Protocol: as §1
(§3) Total RNA was isolated and purified using the SV Total RNA Isolation System (Promega, USA) according to manufacturer's instructions. RNA quality and concentration were verified in the NanoDrop ND1000 Spectrophotometer (Thermo Scientific, USA), and RNA integrity and genomic DNA contamination were evaluated by agarose gel electrophoresis. Total RNA (1 μg) was converted into cDNA using the Maxima Scientific First Strand cDNA Synthesis Kit for RT-qPCR (Thermo Scientific, USA), according to instructions. The following protocol was used: 1st step, 10 min at 25° C.; 2nd step, 15 min at 50° C.; 3rd step, 5 min at 85° C. cDNA was used for qPCR analysis using Maxima SYBR Green qPCR Master Mix (Thermo Scientific, USA) in the StepOnePlus instrument (Applied Biosystems, USA). QuantiTect Primer Assay for LAT1 and ASCT2 and for the endogenous control gene GAPDH (Quiagen, Germany) were used. The qPCR reaction was performed in 96-well PCR plates (Sarstedt, Germany) as follows: one cycle of 10 min at 95° C., followed by 40 PCR cycles at 95° C. 15 s and 60° C. 60 s. […] No template controls were always evaluated for each target gene. Quantification cycle (Cq) values were generated automatically by the StepOnePlus 2.3 Software and the ratio of the target gene was expressed in comparison to the endogenous control gene GAPDH.
as §2

LAT1 mRNA [3] = experiment: LAT1 gene expression (RT-qPCR) after LAT1 gene silencing in human colon cancer HTC-116 cells; assay type: cell-based; settings: treatment 6 h, 72 h, 0.17% Lipofectamine 2000 or 0.1% Injectin, FIG. 19A
Protocol: as §1, §3, §2

ASCT2 mRNA = experiment: ASCT2 gene expression (RT-qPCR) after ASCT2 gene silencing in human colon cancer HTC-116 cells; assay type: cell-based; settings: treatment 6 h, 72 h, 0.17% Lipofectamine 2000 or 0.1% Injectin, FIG. 20A
Protocol: as §1, §3
as §2, with “ASCT2” for “LAT1”

| Substance | cell proliferation ([1]; 0.1% Injectin) | inhibiting sodium-independent [^14C]-L-leucine transport (LAT1) | [^14C]-L-leucine (0.25 μM) uptake at initial rate of uptake (1 min) (LAT1) | LAT1 mRNA relative abundance (LAT1 mRNA [2]) | proliferation [1] | also measured |
| --- | --- | --- | --- | --- | --- | --- |
| 6 (AACATCACGCTGCTCAACGGC; chemistry not given here) [compound 6] | decreased | particularly effective | decreased | decreased | – | – |
| 22 (AACATTGTGCTGGCATTATAC; chemistry not given here) [compound 22] | decreased | particularly effective | decreased | decreased | – | – |
| 34 (AAGGACATCTTCTCCGTCATC; chemistry not given here) [compound 34] | decreased | particularly effective | decreased | decreased | – | – |
| 58 (CTTCGCCACCTACCTGCTCAA; chemistry not given here) [compound 58] | – | particularly effective | decreased | decreased | – | Effect on cell proliferation compared with SEQ ID NO: 34 ([1]; 72 h, 0.1% Injectin, p<0.05): significantly greater; Effect on [^14C]-L-leucine uptake compared with SEQ ID NO: 34 (LAT1; SK-HEP-1 cells, 10 nM, p<0.05): significantly greater; Effect on LAT1 mRNA relative abundance compared with SEQ ID NO: 34 (LAT1 mRNA [2]; SK-HEP-1 cells, 10 nM, p<0.05): significantly greater |
| 58/389/390 (sense UCGCCACCUACCUGCUCAATT; antisense UUGAGCAGGUAGGUGGCGATT; siRNA; sugars by position and backbone not given here; further chemistry not fully specified) | decreased | – | – | – | significantly decreased | Effect on cell proliferation compared with SEQ ID NO: 58 ([1]; 72 h, 0.1% Injectin, p<0.05): significantly greater; LAT1 mRNA relative abundance (LAT1 mRNA [3]): significantly decreased |
| 58/389/412 (sense UCGCCACCUACCUGCUCAATT; antisense UUGAGCAGGUAGGUGGCGAUG; siRNA; sense: sugars from the 5' end r19 d2, backbone not given here; antisense: RNA, backbone not given here) | decreased | – | – | – | – | Effect on cell proliferation compared with SEQ ID NO: 58 ([1]; 72 h, 0.1% Injectin, p<0.05): significantly greater |
| 61 (CGTGAACTGCTACAGCGTGAA; chemistry not given here) [compound 61] | – | particularly effective | decreased | decreased | – | – |
| 61/393/394 (chain 1 UGAACUGCUACAGCGUGAATT; chain 2 UUCACUCUGUAGCAGUUCATT; siRNA; sugars by position and backbone not given here; further chemistry not fully specified) | decreased | – | – | – | significantly decreased | LAT1 mRNA relative abundance (LAT1 mRNA [3]): significantly decreased |
| 61/395/396 (chain 1 UGAACUGCUACAGCGUGAATT; chain 2 UUCACUCUGUAGCAGUUCACG; siRNA; chain 1: sugars from the 5' end r19 d2, backbone not given here; chain 2: RNA, backbone not given here) | decreased | – | – | – | – | – |
| 267/399/400 (sense GGUCCUGUACCGUCCUCAATT; antisense UUGAGGACGGUACAGGACCTT; siRNA; sugars by position and backbone not given here; further chemistry not fully specified) | decreased | – | – | – | significantly decreased | ASCT2 mRNA relative abundance (ASCT2 mRNA): significantly decreased |
| 267/401/402 (sense GGUCCUGUACCGUCCUCAATT; antisense UUGAGGACGGUACAGGACCGG; siRNA; sense: sugars from the 5' end r19 d2, backbone not given here; antisense: RNA, backbone not given here) | decreased | – | – | – | – | Effect on cell proliferation compared with SEQ ID NO: 267/356/402 ([1]; 72 h, 0.1% Injectin, p<0.05): significantly greater |
| 278/405/406 (sense CCACGGUCGCCUCUGAGAATT; antisense UUCUCAGAGGCGACCGUGGTT; siRNA; sugars by position and backbone not given here; further chemistry not fully specified) | decreased | – | – | – | significantly decreased | Effect on cell proliferation compared with SEQ ID NO: 278/367/408 ([1]; 72 h, 0.1% Injectin, p<0.05): significantly greater; ASCT2 mRNA relative abundance (ASCT2 mRNA): significantly decreased |
| 278/407/408 (sense CCACGGUCGCCUCUGAGAATT; antisense UUCUCAGAGGCGACCGUGGCA; siRNA; sense: sugars from the 5' end r19 d2, backbone not given here; antisense: RNA, backbone not given here) | decreased | – | – | – | – | Effect on cell proliferation compared with SEQ ID NO: 278/367/408 ([1]; 72 h, 0.1% Injectin, p<0.05): significantly greater |
